Experimental data from ChEMBL document CHEMBL3132769, “Fragment growing to retain or alter the selectivity of anchored kinase hinge-binding fragments” (Medchemcomm, 2014).

Experiments:
[1] = target: Tyrosine-protein kinase Lck (Homo sapiens) (UniProt P06239); assay: Inhibition of human full length LCK expressed in baculovirus assessed as substrate phosphorylation using fluorescence-labelled peptides as substrate at 0.06 uM after 90 mins by microfluidic peptide phosphorylation assay
[2] = test system: Fibroblast growth factor receptor 2 (Homo sapiens), P21802 [N549H]; assay: Inhibition of human FGFR2 N549H mutant catalytic domain expressed in baculovirus assessed as substrate phosphorylation using fluorescence-labelled peptides as substrate at 0.2 uM after 90 mins by microfluidic peptide phosphorylation assay
Chain of Fibroblast growth factor receptor 2 (Homo sapiens), P21802 [N549H] (P21802 whole entry N549H, the tested form may be a part): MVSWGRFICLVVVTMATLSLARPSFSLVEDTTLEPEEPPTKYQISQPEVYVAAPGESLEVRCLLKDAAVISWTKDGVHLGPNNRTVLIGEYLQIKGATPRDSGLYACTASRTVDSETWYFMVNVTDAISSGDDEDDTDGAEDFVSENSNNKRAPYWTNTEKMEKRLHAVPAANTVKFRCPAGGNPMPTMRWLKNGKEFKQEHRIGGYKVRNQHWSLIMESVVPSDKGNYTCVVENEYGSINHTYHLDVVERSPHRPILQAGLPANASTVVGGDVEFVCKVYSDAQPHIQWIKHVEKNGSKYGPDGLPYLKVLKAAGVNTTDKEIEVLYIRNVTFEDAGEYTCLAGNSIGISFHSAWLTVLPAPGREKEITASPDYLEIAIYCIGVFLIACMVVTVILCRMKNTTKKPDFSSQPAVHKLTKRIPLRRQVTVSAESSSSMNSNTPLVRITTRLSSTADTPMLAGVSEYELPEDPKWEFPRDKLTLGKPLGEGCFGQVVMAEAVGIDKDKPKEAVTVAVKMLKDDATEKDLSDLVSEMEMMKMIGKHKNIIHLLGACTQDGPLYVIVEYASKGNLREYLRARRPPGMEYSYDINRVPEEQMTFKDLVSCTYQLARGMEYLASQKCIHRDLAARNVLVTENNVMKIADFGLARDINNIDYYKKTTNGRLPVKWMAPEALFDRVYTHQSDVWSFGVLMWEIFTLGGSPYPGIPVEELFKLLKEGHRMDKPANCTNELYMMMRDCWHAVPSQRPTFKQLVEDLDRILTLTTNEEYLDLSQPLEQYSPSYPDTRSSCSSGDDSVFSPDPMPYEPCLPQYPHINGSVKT

[3] = target: Ribosomal protein S6 kinase alpha-1 (Homo sapiens) (UniProt Q15418); assay: Inhibition of human full length RSK1 expressed in baculovirus assessed as substrate phosphorylation using fluorescence-labelled peptides as substrate at 0.2 uM after 90 mins by microfluidic peptide phosphorylation assay
Chain of Ribosomal protein S6 kinase alpha-1 (Homo sapiens) (Q15418 whole entry, the tested form may be a part, canonical isoform): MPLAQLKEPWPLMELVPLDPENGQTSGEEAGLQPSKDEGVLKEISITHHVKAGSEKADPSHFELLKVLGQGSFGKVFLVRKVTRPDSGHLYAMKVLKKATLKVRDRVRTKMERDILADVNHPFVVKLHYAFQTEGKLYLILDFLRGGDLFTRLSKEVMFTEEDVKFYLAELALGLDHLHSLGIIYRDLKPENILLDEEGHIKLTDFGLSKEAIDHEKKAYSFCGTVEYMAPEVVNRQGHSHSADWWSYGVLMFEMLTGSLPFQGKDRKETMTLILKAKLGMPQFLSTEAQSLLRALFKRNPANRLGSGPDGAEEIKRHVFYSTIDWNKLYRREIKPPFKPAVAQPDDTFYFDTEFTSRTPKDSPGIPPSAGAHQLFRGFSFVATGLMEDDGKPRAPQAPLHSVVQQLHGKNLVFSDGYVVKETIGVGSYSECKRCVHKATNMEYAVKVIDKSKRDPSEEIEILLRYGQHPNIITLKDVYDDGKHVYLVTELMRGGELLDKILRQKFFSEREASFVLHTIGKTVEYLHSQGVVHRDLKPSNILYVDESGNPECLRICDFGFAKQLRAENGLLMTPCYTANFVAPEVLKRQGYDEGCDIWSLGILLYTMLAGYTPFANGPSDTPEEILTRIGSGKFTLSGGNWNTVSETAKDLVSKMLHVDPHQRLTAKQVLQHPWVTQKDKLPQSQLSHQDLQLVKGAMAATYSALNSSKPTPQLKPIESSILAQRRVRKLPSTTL

[4] = target: Casein kinase I isoform delta (Homo sapiens) (UniProt P48730); assay: Inhibition of human CK1D catalytic domain expressed in Escherichia coli cell assessed as substrate phosphorylation using fluorescence-labelled peptides as substrate at […] after 90 mins by microfluidic peptide phosphorylation assay
Chain of Casein kinase I isoform delta (Homo sapiens) (P48730 whole entry, looked up, the tested form may be a part, canonical isoform): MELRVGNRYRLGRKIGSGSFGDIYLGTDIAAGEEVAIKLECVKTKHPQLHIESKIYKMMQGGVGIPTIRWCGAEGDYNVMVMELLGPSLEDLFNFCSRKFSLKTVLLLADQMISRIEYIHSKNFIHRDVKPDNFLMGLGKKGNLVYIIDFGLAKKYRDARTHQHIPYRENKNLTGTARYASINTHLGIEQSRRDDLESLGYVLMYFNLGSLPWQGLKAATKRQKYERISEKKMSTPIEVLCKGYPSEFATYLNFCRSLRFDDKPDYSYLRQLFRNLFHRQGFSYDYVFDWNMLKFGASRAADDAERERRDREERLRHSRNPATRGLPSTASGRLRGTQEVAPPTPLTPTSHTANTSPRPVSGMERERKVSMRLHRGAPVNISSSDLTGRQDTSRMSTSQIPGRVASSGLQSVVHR

[5] = target: RAC-alpha serine/threonine-protein kinase (Homo sapiens) (UniProt P31749); settings: 0.1 uM
Chain of RAC-alpha serine/threonine-protein kinase (Homo sapiens) (P31749 whole entry, the tested form may be a part): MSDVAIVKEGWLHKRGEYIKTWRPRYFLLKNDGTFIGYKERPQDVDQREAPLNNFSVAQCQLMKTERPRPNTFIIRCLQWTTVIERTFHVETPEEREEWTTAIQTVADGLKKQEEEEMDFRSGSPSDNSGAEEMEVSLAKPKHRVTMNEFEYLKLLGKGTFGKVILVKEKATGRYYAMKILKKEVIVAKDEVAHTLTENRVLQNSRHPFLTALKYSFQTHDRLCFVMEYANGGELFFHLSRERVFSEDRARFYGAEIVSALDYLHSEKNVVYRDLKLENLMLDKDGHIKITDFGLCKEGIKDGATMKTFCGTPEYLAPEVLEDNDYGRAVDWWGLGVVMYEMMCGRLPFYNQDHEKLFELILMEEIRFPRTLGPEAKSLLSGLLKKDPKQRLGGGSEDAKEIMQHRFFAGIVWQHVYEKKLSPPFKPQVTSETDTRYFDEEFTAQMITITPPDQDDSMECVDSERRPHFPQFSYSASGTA
Description: Inhibition of human AKT1 catalytic domain expressed in baculovirus assessed as substrate phosphorylation using fluorescence-labelled peptides as substrate at 0.1 uM after 90 mins by microfluidic peptide phosphorylation assay

[6] = target: Protein kinase C alpha type (Homo sapiens) (UniProt P17252); assay: Inhibition of human truncated PKC alpha expressed in baculovirus assessed as substrate phosphorylation using fluorescence-labelled peptides as substrate at 70 uM after 90 mins by microfluidic peptide phosphorylation assay
[7] = target: T1, Serine/threonine-protein kinase DCLK2 (Homo sapiens) (UniProt Q8N568); assay: Inhibition of human full length DCAMKL2 expressed in baculovirus assessed as substrate phosphorylation using fluorescence-labelled peptides as substrate at 8 uM after 90 mins by microfluidic peptide phosphorylation assay
T1 sequence (whole entry): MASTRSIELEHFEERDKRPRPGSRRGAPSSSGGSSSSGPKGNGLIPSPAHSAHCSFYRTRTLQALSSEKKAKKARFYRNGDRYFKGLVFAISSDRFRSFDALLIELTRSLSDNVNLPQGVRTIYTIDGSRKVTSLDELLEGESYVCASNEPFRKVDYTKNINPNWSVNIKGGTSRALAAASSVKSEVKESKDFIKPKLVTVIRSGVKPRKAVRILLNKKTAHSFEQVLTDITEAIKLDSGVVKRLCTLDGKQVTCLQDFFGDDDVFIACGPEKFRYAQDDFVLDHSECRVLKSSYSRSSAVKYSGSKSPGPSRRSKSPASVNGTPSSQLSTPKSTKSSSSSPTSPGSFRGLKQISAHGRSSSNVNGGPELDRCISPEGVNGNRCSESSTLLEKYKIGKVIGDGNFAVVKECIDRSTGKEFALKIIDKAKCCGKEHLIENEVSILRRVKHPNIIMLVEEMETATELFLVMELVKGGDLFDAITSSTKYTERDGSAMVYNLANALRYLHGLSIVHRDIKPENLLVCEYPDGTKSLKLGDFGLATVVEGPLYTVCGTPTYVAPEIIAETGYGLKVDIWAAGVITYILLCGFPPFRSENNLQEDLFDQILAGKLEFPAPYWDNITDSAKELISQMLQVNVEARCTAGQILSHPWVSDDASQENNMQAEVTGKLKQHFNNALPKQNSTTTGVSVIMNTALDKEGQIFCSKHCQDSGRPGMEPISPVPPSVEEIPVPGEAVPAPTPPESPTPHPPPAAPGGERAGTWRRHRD

[8] = target: T2, Mitogen-activated protein kinase 12 (Homo sapiens) (UniProt P53778); assay: Inhibition of human full length p38 gamma expressed in Escherichia coli cell assessed as substrate phosphorylation using fluorescence-labelled peptides as substrate at 8 uM after 90 mins by microfluidic peptide phosphorylation assay
T2 sequence (whole entry): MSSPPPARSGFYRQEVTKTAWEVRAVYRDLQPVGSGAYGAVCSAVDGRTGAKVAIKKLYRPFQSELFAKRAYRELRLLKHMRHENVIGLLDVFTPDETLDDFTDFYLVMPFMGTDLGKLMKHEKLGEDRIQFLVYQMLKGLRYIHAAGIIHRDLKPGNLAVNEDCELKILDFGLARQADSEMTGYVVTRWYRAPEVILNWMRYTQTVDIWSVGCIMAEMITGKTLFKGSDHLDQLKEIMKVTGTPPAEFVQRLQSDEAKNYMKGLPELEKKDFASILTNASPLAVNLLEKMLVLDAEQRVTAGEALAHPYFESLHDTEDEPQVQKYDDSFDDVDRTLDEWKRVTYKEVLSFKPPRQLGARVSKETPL

[9] = test system: Fibroblast growth factor receptor 2 (Homo sapiens), P21802 [N549H]; assay: Inhibition of human FGFR2 N549H mutant catalytic domain expressed in baculovirus assessed as substrate phosphorylation using fluorescence-labelled peptides as substrate at 8 uM after 90 mins by microfluidic peptide phosphorylation assay
[10] = target: Dual specificity tyrosine-phosphorylation-regulated kinase 1A (Rattus norvegicus) (UniProt Q63470); assay: Inhibition of rat full length DYRK1a expressed in Escherichia coli cell assessed as substrate phosphorylation using fluorescence-labelled peptides as substrate at 1000 uM after 90 mins by microfluidic peptide phosphorylation assay
[11] = target: T3, Protein kinase C epsilon type (Homo sapiens) (UniProt Q02156); assay: Inhibition of human truncated PKC epsilon expressed in baculovirus assessed as substrate phosphorylation using fluorescence-labelled peptides as substrate at 2 uM after 90 mins by microfluidic peptide phosphorylation assay
T3 sequence (whole entry): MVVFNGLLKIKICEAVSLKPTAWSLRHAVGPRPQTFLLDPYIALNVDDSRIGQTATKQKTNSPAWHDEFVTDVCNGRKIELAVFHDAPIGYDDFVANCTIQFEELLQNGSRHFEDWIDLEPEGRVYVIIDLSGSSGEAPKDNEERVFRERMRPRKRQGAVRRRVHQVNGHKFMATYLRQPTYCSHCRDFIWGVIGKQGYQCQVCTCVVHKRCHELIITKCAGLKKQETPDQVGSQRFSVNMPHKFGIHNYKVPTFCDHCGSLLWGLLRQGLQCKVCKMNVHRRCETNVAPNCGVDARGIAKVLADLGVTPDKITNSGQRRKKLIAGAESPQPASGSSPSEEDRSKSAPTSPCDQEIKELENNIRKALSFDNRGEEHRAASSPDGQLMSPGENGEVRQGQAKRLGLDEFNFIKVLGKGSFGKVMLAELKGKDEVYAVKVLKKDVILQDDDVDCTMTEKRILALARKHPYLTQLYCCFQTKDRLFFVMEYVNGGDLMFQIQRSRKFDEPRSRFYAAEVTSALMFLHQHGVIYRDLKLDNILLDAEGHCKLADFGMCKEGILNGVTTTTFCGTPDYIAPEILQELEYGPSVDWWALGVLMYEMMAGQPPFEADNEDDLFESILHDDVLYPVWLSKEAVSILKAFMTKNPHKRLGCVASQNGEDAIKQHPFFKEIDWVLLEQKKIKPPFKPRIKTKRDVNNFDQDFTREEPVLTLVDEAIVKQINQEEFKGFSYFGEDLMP

[12] = target: T1, Serine/threonine-protein kinase DCLK2 (Homo sapiens); assay: Inhibition of human full length DCAMKL2 expressed in baculovirus assessed as substrate phosphorylation using fluorescence-labelled peptides as substrate at 2 uM after 90 mins by microfluidic peptide phosphorylation assay

Chain of Tyrosine-protein kinase Lck (Homo sapiens) (P06239 2-509 limits assumed): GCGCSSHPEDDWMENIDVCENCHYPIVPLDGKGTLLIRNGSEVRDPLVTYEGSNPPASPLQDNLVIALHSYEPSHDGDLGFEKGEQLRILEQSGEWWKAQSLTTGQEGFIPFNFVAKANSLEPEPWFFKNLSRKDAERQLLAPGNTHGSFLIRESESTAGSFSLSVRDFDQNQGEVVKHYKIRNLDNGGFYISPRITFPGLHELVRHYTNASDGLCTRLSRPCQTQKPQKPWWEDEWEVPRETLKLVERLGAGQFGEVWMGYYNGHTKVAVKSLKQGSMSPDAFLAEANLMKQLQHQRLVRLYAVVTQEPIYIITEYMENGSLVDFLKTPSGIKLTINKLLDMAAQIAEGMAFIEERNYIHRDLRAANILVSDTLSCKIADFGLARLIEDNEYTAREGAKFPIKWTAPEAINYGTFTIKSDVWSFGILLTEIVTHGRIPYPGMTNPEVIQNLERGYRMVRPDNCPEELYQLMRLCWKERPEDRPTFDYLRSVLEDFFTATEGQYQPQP

## NC1(Cc2ccc(Cl)cc2)CCN(c2ncnc3[nH]ccc23)CC1
[1]
  inhibition: 0%

## Clc1ccc(C2(c3ccc(-c4ncnc5[nH]cnc45)cc3)CCNCC2)cc1
[2]
  inhibition: 7%
[3]
  inhibition: 38%

## COC(=O)c1cnc(Nc2cnc(C#N)cn2)cc1NCC1CCNCC1
[4]
  inhibition: 10.5%

## C[C@H](CN(C)C)Oc1nc(Nc2cc3cccc(Cl)c3cn2)cnc1C#N
[5]
  inhibition: 0%

## CNCc1ccc(-c2ncnc3[nH]cnc23)cc1
[6]
  inhibition: 56%

## NCC1CCN(c2ncnc3[nH]ccc23)CC1
[7]
  inhibition: 21%
[8]
  inhibition: 5%
[9]
  inhibition: 0%

## c1cnc2[nH]ccc2c1
[10]
  inhibition: 64.5%

## NC1CCN(c2ncnc3[nH]ccc23)CC1
[11]
  inhibition: 2.5%
[12]
  inhibition: 1.5%
